In patent publication US20180133211A1, “METHODS AND MATERIALS FOR PROMOTING BONE FORMATION” (Mayo Foundation for Medical Education and Research, priority 2015, published 2018):

Columns and labels:
[1] = Body and spleen weight in GSK126 in vivo studies; set-up: species or system mouse
Protocol: (§1) Female C57BL/6 mice (Harlan Laboratories) were maintained on a 12-hour light/12-hour dark cycle and were permitted ad libitum access to food and water. For efficacy studies, 6-week old mice received daily intraperitoneal (IP) injections of GSK126 at 15 mg/kg, 50 mg/kg, or vehicle (DMSO) in 20% Captisol adjusted to pH 4-4.5 with IN acetic acid (McCabe et al., Nature, 492:108-112 (2012)) for 5 weeks.
(§2) The dosage, delivery schedule, and administration route were similar to those described elsewhere (McCabe et al., Nature, 492:108-112 (2012)). Animals were weighed daily. To label mineralizing bone surfaces, mice received subcutaneous injections of calcein (10 mg/kg) 5 days and 24 hours before euthanasia.
The effects of GSK126 administration on the skeleton was evaluated in an estrogen-deficient ovariectomy (OVX) model. At about 12 weeks of age, female C57BL/6 mice underwent either sham or OVX surgeries. The following day, animals received daily IP injections of GSK126 or vehicle (DMSO) at 50 mg/kg body weight for 6 weeks as described herein. To label mineralizing bone surfaces and study bone formation rates, mice received subcutaneous injections of tetracycline (25 mg/kg) 14 days prior sacrifice and calcein (10 mg/kg) at 5 days and 24 hours before euthanasia.

Mesenchymal stem cells = assay: RNA-Seq of mesenchymal stem cells treated with BMP2 and/or GSK126; type: cell-based, human; conditions: 2 μM GSK126 together with 50 ng/ml BMP2
Protocol: mRNASeq was performed on the following samples: 1) MSCs grown on plastic or titanium disks in osteogenic cocktail (one sample from each time-point, samples created by pooling biological triplicates), 2) RNA from d3 AMCs treated with vehicle or 2 μM GSK126 in osteogenic cocktail (three samples from each treatment group), 3) RNA from d3, d6, and d10 MC3T3 treated with vehicle or 5 μM GSK126 (one sample from each treatment group at each time-point, samples created by pooling biological triplicates), 4) RNA from three day old female WT or cKO (Prrx1-Ezh2) (one sample from each genotype, pooling of RNA from three (WT) and two (cKO)), and one sample of MSCs in adipogenic cocktail for six days. High throughput mRNA sequencing and bioinformatic analyses (mRNASeq) were performed as described elsewhere (Dudakovic et al., J. Cell Biochem., 115:1816-1828 (2014)).
In addition, osteogenic genes are synergistically activated by GSK126 and BMP2. Mesenchymal stem cells were treated with 50 ng/ml BMP2 and/or 2 μM GSK126. […] Thus, EZH2 inhibition enhances the osteogenic potential of cells treated with BMP2, a key osteogenic activator.

female C57BL/6 mice = assay: microCT of femur after 5 weeks of daily GSK126 (in vivo Ezh2 inhibition); set-up: species or system mouse; conditions: for Ct. TV: cortical bone; for Ct. TV / Ct. Ar / Ct. BV / Ct. Mat.M.Dn / Ct. Th / Ec. Ar / Ps.Ar: femoral midshaft; for Ct. TV / Tb.N / Tb.Sp / Tb.Th / Ct. Ar / Ct. BV / Ct. Mat.M.Dn / Ct. Th / Ec. Ar / Ps.Ar: 5 weeks, mean; for Tb.N / Tb.Sp / Tb.Th: distal femur metaphysis
Protocol: as §1, §2
The quantitative analysis of the femoral metaphysis was performed using a vivaCT 40 scanner (SCANCO Medical AG) with the following parameters: E=55 kVp, 1=145 μA, integration time=300 ms. A 10.5 μm voxel size using a threshold of 220 was applied to all scans at high resolution. Using two-dimensional data from scanned slices, 3D analysis was generated and used to calculate morphometric parameters defining trabecular bone mass and micro-architecture, including Bone Volume/Tissue volume (BV/TV), trabecular number (Tb.N.), trabecular thickness (Tb.Th.), trabecular spacing (Tb.Sp.), and the structure model index (SMI), an indicator of plate-like versus rod-like trabecular architecture.

[2] = Tolerability of DL-SFN injections in mice; type: in vivo, mouse; conditions: 7.5 mM DL-SFN, 200 μL intraperitoneally every other day for five weeks
Protocol: (§3) Analysis of SFN on mice was performed using a protocol similar to that described elsewhere (Kong et al., Arthritis Rheum., 62:159-170 (2010)). In the experimental setting herein, eight week old sham operated or ovariectomized (OVX) C57B16/J female mice were purchased from Charles River laboratories. Mice were injected with 7.5 mM DL-SFN (200 μL of SFN at a concentration of 63.8 mg/mL/kg dissolved in ethanol and further diluted in PBS) intraperitoneally every other day for five weeks. Control mice received vehicle alone.

[3] = test system: sham operated or ovariectomized (OVX) mice; assay: Quantitative backscattered electron imaging (qBEI) of bone mineralization, SFN in vivo; set-up: species or system mouse; conditions: two-way ANOVA
Protocol: as §3
Un-decalcified distal femora from 13 weeks old mice, sham/Crt (n=5), sham/DL-SFN (n=5), OVX/ctrl (n=4) and OVX/DL-SFN (n=5), were fixed and dehydrated in alcohol, embedded in polymethylmethacrylate (PMMA), and prepared for backscattered electron imaging as previously described. qBEI is based on backscattering of electrons from the surface-layer (i.e., the initial ˜1.5 micron) of a bone section. The rate of these backscattered electrons is proportional to the weight concentration of mineral (hydroxyapatite), and thus of that of calcium in bone. Details of the method were described elsewhere (Roschger et al., Bone, 42:456-466 (2008)). A scanning electron microscope (DSM 962, Zeiss, Oberkochen, Germany) equipped with a four quadrant semiconductor backscattered electron detector was used. […]

## CC[C@H](C)n1cc(C)c2c(C(=O)NCc3c(C)cc(C)[nH]c3=O)cc(-c3ccc(N4CCNCC4)nc3)cc21 [GSK126, N-[(1,2-dihydro-4,6-dimethyl-2-oxo-3-pyridinyl)methyl]-3-methyl-1-[(1S)-1-methylpropyl]-6-[6-(1-piperazinyl)-3-pyridinyl]-1H-indole-4-carboxamide]
[1]; C57bl/6 mice, 15 mg/kg or 50 mg/kg GSK126 for 5 weeks vs vehicle
  body or spleen weight at sacrifice: No changes
[1]; mouse ovariectomy model, six weeks of daily injections, between surgical and treatment groups
  Body and spleen weights: similar
Mesenchymal stem cells
  expression of key osteogenic factors DLXS, SP7, IBSP: synergistically enhanced
Female C57BL/6 mice; adult mice, 50 mg/kg daily for 5 weeks, in words
  cortical bone parameters: increased
Female C57BL/6 mice; 15 mg/kg
  Ct. TV: 1.184 mm^3
  Tb.N: 3.850 mm^−1
  Tb.Sp: 0.267 mm
  Tb.Th: 0.040 mm
  Ct. Ar: 0.719 mm^2
  Ct. BV: 0.509 mm^3
  Ct. Mat.M.Dn: 1235 mgHA/cm^3
  Ct. Th: 0.171 mm
  Ec. Ar: 0.955 mm^2
  Ps.Ar: 1.675 mm^2
Female C57BL/6 mice; 50 mg/kg
  Ct. TV: 1.243 mm^3
  Tb.N: 4.053 mm^−1
  Tb.Sp: 0.252 mm
  Tb.Th: 0.043 mm
  Ct. Ar: 0.753 mm^2
  Ct. BV: 0.532 mm^3
  Ct. Mat.M.Dn: 1238 mgHA/cm^3
  Ct. Th: 0.175 mm
  Ec. Ar: 1.006 mm^2
  Ps.Ar: 1.758 mm^2

## C[S+]([O-])CCCCN=C=S (racemic) [DL-SFN]
[2]
  apparent adverse effects (weight loss, physical appearance, behavior): did not show apparent adverse effects
[3]
  CaPeak and CaWidth of trabecular bone (qBEI): no effects
